Converted amounts (≈) assume the structure as drawn. Where two headings read alike, the source gives them in different places.
Legend:
Assay in all cases: MIC, standard agar-dilution assay
Type in all cases: cell-based
[1] = test system: Staphylococcus aureus X1.1; settings: Staphylococcus aureus, X1.1, read-out: minimal inhibitory concentration (MIC)
[2] = test system: Staphylococcus aureus V41; settings: Staphylococcus aureus
Source text: (§1) In addition to excellent in vitro activity against erythromycin-sensitive bacteria, several members of this new series have shown in vitro activity against erythromycin-resistant strains. These include strains which are inducibly-resistant to erythromycin (S. aureus V41 and X400 and S. epidermidis EPI1) and even strains which are constitutively-resistant (S. epidermidis 270).

[3] = test system: Staphylococcus aureus X400; settings: Staphylococcus aureus
Source text: as §1

[4] = test system: Staphylococcus epidermidis 270
Source text: as §1

[5] = test system: Staphylococcus aureus S13E; settings: Staphylococcus aureus, S13E, read-out: minimal inhibitory concentration (MIC)
[6] = test system: Staphylococcus epidermidis 222
[7] = test system: Streptococcus pyogenes C203; settings: Streptococcus pyogenes
[8] = test system: Streptococcus sp. group D X66; settings: Streptococcus, read-out: minimal inhibitory concentration (MIC)
[9] = test system: Streptococcus sp. group D 2041; settings: Streptococcus, read-out: minimal inhibitory concentration (MIC)
[10] = test system: Haemophilus influenzae C.L.; settings: Haemophilus influenzae, read-out: minimal inhibitory concentration (MIC)
[11] = test system: Haemophilus influenzae 76; settings: Haemophilus influenzae, 76; Table IV; ampicillin-resistant strain; read-out: minimal inhibitory concentration (MIC)
Escherichia coli EC14 = settings: Escherichia coli
[12] = test system: Klebsiella pneumoniae X68; settings: Klebsiella pneumoniae
[13] = test system: Streptococcus pneumoniae Park I; settings: Streptococcus pneumoniae, read-out: minimal inhibitory concentration (MIC)
[14] = test system: Staphylococcus epidermidis EPI1; settings: EPI1, read-out: minimal inhibitory concentration (MIC)
Source text: as §1

[15] = Staphylococcus epidermidis, 222, read-out: minimal inhibitory concentration (MIC)
[16] = C203, read-out: minimal inhibitory concentration (MIC)
[17] = EC14, Table IV, agar dilution, read-out: minimal inhibitory concentration (MIC)
[18] = X68, read-out: minimal inhibitory concentration (MIC)
[19] = V41, Table IV, penicillin-resistant strain, inducibly erythromycin-resistant, read-out: minimal inhibitory concentration (MIC)
[20] = X400, Table IV, methicillin-resistant strain, inducibly erythromycin-resistant, read-out: minimal inhibitory concentration (MIC)
[21] = Staphylococcus epidermidis, 270, Table IV, constitutively erythromycin-resistant, read-out: minimal inhibitory concentration (MIC)
[22] = EC14, read-out: minimal inhibitory concentration (MIC)
[23] = X68, Table IV, agar dilution, read-out: minimal inhibitory concentration (MIC)
[24] = Table IV, ampicillin-sensitive strain

Row | Structure (SMILES) | MIC [1] [µg/mL] | MIC [5] [µg/mL] | MIC [6, 15] [µg/mL] | MIC [7, 16] [µg/mL] | MIC [8] [µg/mL] | MIC ([9]; Table IV, agar dilution) [µg/mL] | MIC [10] [µg/mL] | MIC [11] [µg/mL] | MIC (Escherichia coli EC14; [17]) [µg/mL] | MIC [12, 18] [µg/mL] | MIC [2, 19] [µg/mL] | MIC [3, 20] [µg/mL] | MIC [4, 21] [µg/mL] | MIC [9] [µg/mL] | MIC (Escherichia coli EC14; [22]) [µg/mL] | MIC [12, 23] [µg/mL] | MIC [10, 24] [µg/mL] | also measured
1 | CC[C@H]1OC(=O)[C@H](C)[C@@H](O[C@H]2C[C@@](C)(OC)[C@@H](O)[C@H](C)O2)[C@H](C)[C@@H](O[C@@H]2O[C@H](C)C[C@H](N(C)C)[C@H]2O)[C@](C)(O)C[C@@H](C)[C@H](NCCCC#N)[C@H](C)[C@@H](O)[C@]1(C)O [Compound 29, 9-Deoxo-9-[(3-cyanopropyl)amino]erythromycin] | 1 (≈ 1.25 µM) | 128 (≈ 160 µM) | 1 (≈ 1.25 µM) | 1 (≈ 1.25 µM) | 0.125 (≈ 0.156 µM) | 4 (≈ 4.99 µM) | 2 (≈ 2.49 µM) | 4 (≈ 4.99 µM) | 64 (≈ 79.8 µM) | 128 (≈ 160 µM) |  |  |  |  |  |  |  | MIC ([2]; V41, read-out: minimal inhibitory concentration (MIC)): > 128 µg/mL; MIC ([3]; X400, read-out: minimal inhibitory concentration (MIC)): > 128 µg/mL; MIC ([4]; Staphylococcus epidermidis, 270, read-out: minimal inhibitory concentration (MIC)): > 128 µg/mL
2 | CC[C@H]1OC(=O)[C@H](C)[C@@H](O[C@H]2C[C@@](C)(OC)[C@@H](O)[C@H](C)O2)[C@H](C)[C@@H](O[C@@H]2O[C@H](C)C[C@H](N(C)C)[C@H]2O)[C@](C)(O)C[C@@H](C)[C@H](NCCOC)[C@H](C)[C@@H](O)[C@]1(C)O [Compound 31, 9-Deoxo-9-[(2-Methoxyethyl)amino]erythromycin] | 0.5 (≈ 0.63 µM) | 0.5 (≈ 0.63 µM) |  | 0.06 (≈ 0.0757 µM) |  |  | 0.5 (≈ 0.63 µM) | 2 (≈ 2.52 µM) |  |  | > 128 | > 128 | > 128 | 8 (≈ 10.1 µM) | 16 (≈ 20.2 µM) | 32 (≈ 40.4 µM) |  | MIC ([6]; Staphylococcus epidermidis, 222, Table IV, agar dilution, read-out: minimal inhibitory concentration (MIC)): 0.25 µg/mL (≈ 0.315 µM); MIC ([13]; Table IV, agar dilution): 0.03 µg/mL (≈ 0.0378 µM); MIC ([8]; Table IV, agar dilution): 0.125 µg/mL (≈ 0.158 µM)
3 | CC[C@H]1OC(=O)[C@H](C)[C@@H](O[C@H]2C[C@@](C)(OC)[C@@H](O)[C@H](C)O2)[C@H](C)[C@@H](O[C@@H]2O[C@H](C)C[C@H](N(C)C)[C@H]2O)[C@](C)(O)C[C@@H](C)[C@H](NCCC2=C(C)CCCC2(C)C)[C@H](C)[C@@H](O)[C@]1(C)O [Compound 30, 9-Deoxo-9-[[2-(2,6,6-trimethyl-1-cyclohexen-1-yl)ethyl]amino]erythromycin] | 1 (≈ 1.13 µM) | 2 (≈ 2.26 µM) | 1 (≈ 1.13 µM) | 0.5 (≈ 0.565 µM) | 0.125 (≈ 0.141 µM) |  |  | 4 (≈ 4.52 µM) | > 128 |  | 16 (≈ 18.1 µM) | 32 (≈ 36.1 µM) | 64 (≈ 72.3 µM) | 2 (≈ 2.26 µM) |  | > 128 | 4 (≈ 4.52 µM) | 
4 | CCCN[C@@H]1[C@H](C)[C@@H](O)[C@@H](C)[C@@H](CC)OC(=O)[C@H](C)[C@@H](O[C@H]2C[C@@](C)(OC)[C@@H](O)[C@H](C)O2)[C@H](C)[C@@H](O[C@@H]2O[C@H](C)C[C@H](N(C)C)[C@H]2O)[C@](C)(O)C[C@H]1C [Compound 38] | 0.5 (≈ 0.657 µM) | 1 (≈ 1.31 µM) | 0.5 (≈ 0.657 µM) | 0.125 (≈ 0.164 µM) | 0.125 (≈ 0.164 µM) |  | 2 (≈ 2.63 µM) | 4 (≈ 5.26 µM) | 64 (≈ 84.1 µM) | 128 (≈ 168 µM) | 8 (≈ 10.5 µM) | 64 (≈ 84.1 µM) | > 128 | 2 (≈ 2.63 µM) |  |  |  | MIC [13]: 0.125 µg/mL (≈ 0.164 µM)
5 | C=CCCCCCCCCCN[C@@H]1[C@H](C)[C@@H](O)[C@](C)(O)[C@@H](CC)OC(=O)[C@H](C)[C@@H](O[C@H]2C[C@@](C)(OC)[C@@H](O)[C@H](C)O2)[C@H](C)[C@@H](O[C@@H]2O[C@H](C)C[C@H](N(C)C)[C@H]2O)[C@](C)(O)C[C@H]1C [Compound 28, 9-Deoxo-9-[(undec-10-enyl)amino]erythromycin] | 2 (≈ 2.25 µM) | 2 (≈ 2.25 µM) | 1 (≈ 1.13 µM) | 1 (≈ 1.13 µM) | 0.125 (≈ 0.141 µM) |  | 2 (≈ 2.25 µM) | 2 (≈ 2.25 µM) | > 128 |  | 8 (≈ 9.02 µM) | 8 (≈ 9.02 µM) | 32 (≈ 36.1 µM) | 2 (≈ 2.25 µM) |  | > 128 |  | 
6 | CCCN1CO[C@@H]2[C@@H](C)[C@@H]1[C@H](C)C[C@@](C)(O)[C@H](O[C@@H]1O[C@H](C)C[C@H](N(C)C)[C@H]1O)[C@@H](C)[C@H](O[C@H]1C[C@@](C)(OC)[C@@H](O)[C@H](C)O1)[C@@H](C)C(=O)O[C@H](CC)[C@@]2(C)O [Compound 59] |  |  | 0.125 (≈ 0.158 µM) |  | 0.125 (≈ 0.158 µM) |  |  |  |  |  |  |  |  |  |  |  |  | MIC [14]: > 128 µg/mL
7 | CCCCCCCCCCN[C@@H]1[C@H](C)[C@@H](O)[C@@H](C)[C@@H](CC)OC(=O)[C@H](C)[C@@H](O[C@H]2C[C@@](C)(OC)[C@@H](O)[C@H](C)O2)[C@H](C)[C@@H](O[C@@H]2O[C@H](C)C[C@H](N(C)C)[C@H]2O)[C@](C)(O)C[C@H]1C [Compound 41] | 2 (≈ 2.33 µM) | 1 (≈ 1.16 µM) | 0.5 (≈ 0.582 µM) |  | 0.5 (≈ 0.582 µM) | 4 (≈ 4.66 µM) |  | 4 (≈ 4.66 µM) | > 128 |  | 4 (≈ 4.66 µM) | 4 (≈ 4.66 µM) | 8 (≈ 9.31 µM) |  |  | > 128 | 8 (≈ 9.31 µM) | MIC ([7]; C203, Table IV, agar dilution, read-out: minimal inhibitory concentration (MIC)): 0.03 µg/mL (≈ 0.0349 µM); MIC ([13]; Table IV, agar dilution): 0.03 µg/mL (≈ 0.0349 µM)
8 | CCOC(=O)C1CC1CN[C@@H]1[C@H](C)[C@@H](O)[C@](C)(O)[C@@H](CC)OC(=O)[C@H](C)[C@@H](O[C@H]2C[C@@](C)(OC)[C@@H](O)[C@H](C)O2)[C@H](C)[C@@H](O[C@@H]2O[C@H](C)C[C@H](N(C)C)[C@H]2O)[C@](C)(O)C[C@H]1C (stereo partly drawn) [Compound 27, 9-Deoxo-9-[[[2-(ethoxycarbonyl)cyclopropyl]methyl]amino]erythromycin] | 1 (≈ 1.16 µM) | 1 (≈ 1.16 µM) | 0.5 (≈ 0.581 µM) | 0.5 (≈ 0.581 µM) | 0.125 (≈ 0.145 µM) |  | 2 (≈ 2.32 µM) | 2 (≈ 2.32 µM) |  | 128 (≈ 149 µM) | > 128 | > 128 | > 128 | 2 (≈ 2.32 µM) | 128 (≈ 149 µM) |  |  | 
9 | CC[C@H]1OC(=O)[C@H](C)[C@@H](O[C@H]2C[C@@](C)(OC)[C@@H](O)[C@H](C)O2)[C@H](C)[C@@H](O[C@@H]2O[C@H](C)C[C@H](N(C)C)[C@H]2O)[C@](C)(O)C[C@@H](C)[C@H](NCCOCCOC)[C@H](C)[C@@H](O)[C@H]1C [Compound 49] | 1 (≈ 1.22 µM) | 0.5 (≈ 0.609 µM) | 1 (≈ 1.22 µM) | 0.015 (≈ 0.0183 µM) | 0.25 (≈ 0.304 µM) | 4 (≈ 4.87 µM) |  | 8 (≈ 9.74 µM) |  | 128 (≈ 156 µM) | 128 (≈ 156 µM) | > 128 | > 128 |  | 128 (≈ 156 µM) |  | 4 (≈ 4.87 µM) | MIC [13]: 0.015 µg/mL (≈ 0.0183 µM)

From patent publication US5110800A, “Derivatives of erythromycylamine” (Eli Lilly and Company, priority 1989, dated 1992)
